In ChEMBL document CHEMBL1156349, “Junceol A, a new sesquiterpenoid from the sea pen Virgularia juncea” (2001) one finds EC50 data, which are given here for 3 molecules.

Values after ≈ are worked out from the molar mass of the structure shown.

The assay deals with P388. As to the kind of experiment: Cytotoxicity against mouse P388 cells by MTT assay. Type of assay: functional. Conditions: read-out: ED50 (the source's name). For orientation: Tetrazolium dyes change colour on reduction, which living cells bring about.
For `C=C1CC[C@H](C(C)C)[C@@H]2[C@H]1[C@@H]1CC(=C)[C@@H](O)CC[C@](C)(O)[C@H]2O1` [CLADIELLISIN], the EC50 turned out to be 2 µg/mL (≈ 6.24 µM).
For the molecule `CC(=O)OC(C)(C)[C@H]1C=C2[C@@H](C)CC[C@@H](O)[C@]2(C)CC1` [JUNCEOL A], the EC50 was 5.1 µg/mL (≈ 18.2 µM).
Regarding `C=C1CC[C@H](C(C)C)[C@@H]2[C@H]1[C@H]1C[C@](C)(O)[C@@H](O)CC[C@@](C)(O)[C@@H]2O1` [SCLEROPHYTIN A], the EC50 stood at 2.3 µg/mL (≈ 6.79 µM).
